Source: patent US20240059729A1, “MULTIFUNCTIONAL CYCLIC DINUCLEOTIDE AND USE THEREOF” (TYLIGAND BIOSCIENCE (SHANGHAI) LIMITED, priority 2020, published 2024)
Counter-ions that a name gives are not always drawn.

Tests used:
CT26 cells [1] = assay: Anti-tumor activity in bilateral transplantation tumor model of CT26 syngeneic mouse; type: in vivo, BALB/c mice; details: Day 0 and Day 4; for Growth inhibition rate, untreated left tumor: Day 13 post-dose, 50 μg/mouse intratumorally right side; for Inhibition of tumor growth, treated right-side tumor: Day 13 post-dosing, 50 μg/mouse (2.5 mg/kg) intratumorally right side
Method: BALB/c mice of 6-8 weeks (purchased from Shanghai Ling Chang Biotech Co., Ltd.) were inoculated with 5×10^5 CT26 cells (supplied by Taicang Zexin Biotechnology Co., Ltd., ATCC #CRL-2638) subcutaneously on the left and right back dorsal, respectively, and the inoculation volume was 0.1 mL/side. When tumors grew to an average volume of 100 mm^3, they were randomized according to tumor size and mouse body weight and dosing was initiated. The day of the first dose was Day 0.
Two doses were administered on Day 0 and Day 4, with 50 μg of compound/mouse (i.e., 2.5 mg/kg) injected intratumorally right side, with the same volume of PBS (Hyclone, Cat #SH30258.01) as a control. The tumor on the left side was not treated. The control mice were sacrificed 13 days and the treated mice were sacrificed 21 days, after dosing. During the experiment, tumor volumes on the left and right sides and the body weights were measured 3 times per week, and the tumor volume was calculated as V=D×d×d/2 (where D represents length of tumor and d represents width of tumor).

[2] = test system: IFN-β secretion by THP-1 cells; assay: Activation of IFN-β secretion by THP-1 cells (Human IFN-beta ELISA); type: cell-based; details: for EC50 / Activating effect on IFN-β secretion / STING agonist activity (in words): THP-1 cells; for EC50: 24 hours, IFN-β ELISA; for Activating effect on IFN-β secretion / STING agonist activity (in words): EC50 compared with 2′,3′-cGAMP and ADU-S100; for Highest concentration of IFN-β secreted by stimulated THP-1 cells: compared with ADU-S100
Method: THP-1 cell, a human monocytic leukemia cell line, has the STING phenotype of HAQ type, i.e., R71H-G230A-R293Q. This assay used the Human IFN-beta DuoSet ELISA Kit from R & D (R & D, Cat #DY814-05) and the DuoSet ELISA Ancillary Reagent Kit 2 (R & D, Cat #DY008) to evaluate the activation of IFN-β secretion from THP-1 cells by representative compounds of the invention.
In thawing the THP-1 cells (ATCC #TIB-202), a cell freezing tube was quickly shaken in a water bath at 37° C. to thaw the cells within 1 min. The thawed cell suspension was taken and evenly mixed with an RPMI1640 medium (Hyclone, product #SH30027.01) containing 10% FBS (Life Technology, Cat #10099-141), centrifuged for 5 min at 1000 rpm, and the supernatant was discarded. The cell pellet was resuspended in 5 mL of the complete medium (RPMI 1640 medium containing 10% FBS), placed into a cell culture flask with a bottom area of 25 cm^2, and incubated in a cell incubator at 37° C., 5% CO2 and 95% humidity. When the cell confluence reached about 80%, the cells were passaged. All the cells in the culture flask were transferred to a 15 mL centrifuge tube, centrifuged for 5 min at 1000 rpm, and the supernatant was discarded. 5 mL of fresh complete medium was added to re-suspend the cell pellet, 1 mL of which was taken to place in a cell culture flask with a bottom area of 25 cm^2, supplemented with 4 mL of fresh complete medium for further incubation. When the cell confluence reached about 80% again, plating was conducted following the procedure of cell passage, retaining 1/5 cell suspension for further inculation and remaining 4/5 of the cell suspension in a 15 mL centrifuge tube. The cell suspension was centrifuged to discard the old culture medium, washed once using RPMI1640 culture medium (serum-free), and centrifuged to remove the supernatant. The cells were then re-suspended in RPMI1640 culture medium (serum-free). Cell viability was then detected by Trypan blue exclusion test and to be used for plating when the cell viability was confirmed to be more than 95%. A cell suspension with a density of 1.1×10^6 viable cells/mL was prepared using RPMI1640 culture medium (serum-free), and 180 μL of the cell suspension was added to a 96-well cell culture plate (NUNC Company, Cat #167008) so that the cell density in the plate was 2×10^5 viable cells/well.
A 10 mM stock solution of the compounds in DMSO was first serially diluted at 3.16-fold with DMSO (Sigma, Cat #D2650) to the 5th concentration, and the 6th concentration was set as DMSO control (compound-free). Then, the DMSO solutions containing different concentrations of the compounds were diluted at 10-fold with PBS so that the DMSO content in each compound solution of various concentrations was 10%. Finally, 20 μL of each of such solutions was added into corresponding cell culture plate to provide an initial compound concentration of 100 μM, with the dilution fold of adjacent concentrations being 3.16 and the DMSO content in the cell culture plate being 1%. The cell plate was placed in a cell incubator for further 24 hours.
ELISA detection was conducted referring to the instructions from R & D System, Cat #DY814-05.
ELISA plate coating: PBS (R & D System Cat #DY006) was used to dilute the capture antibody (mouse anti-human IFN-β capture antibody PART #844508) to provide the working concentration, and 100 μL capture antibody working solution was added to a 96-well ELISA plate which was then sealed and incubated overnight at room temperature. Upon discarding the capture antibody working solution, the cell plate was washed 3 times with a washing buffer (0.05% Tween-20 in PBS, pH 7.2-7.4, R & D System Cat #WA126) at 400 μL of the washing buffer per well, and the washing buffer was thoroughly removed after each washing, with the final washing to be completely removed of the wash buffer by inverting and claping the plate to a clean piece of paper. […]

CT26 cells [3] = assay: Anti-tumor activity in transplantation tumor model of CT26 nude mouse; type: in vivo, BALB/c nude mice; details: for Tumor growth inhibition rate in T cell immunodeficient nude mice: Day 9 post-dosing, 50 μg/mouse (2.5 mg/kg) intratumorally, Day 0 and Day 4; for Tumor growth inhibition in immuno-competent mice versus nude mice (in words): FIG. 2D
Method: BALB/c nude mice of 6-8 weeks (purchased from Shanghai Ling Chang Biotech Co., Ltd.) were inoculated with 5×10^5 CT26 cells (supplied by Taicang Zexin Biotechnology Co., Ltd., ATCC #CRL-2638) subcutaneously on the right back dorsal, respectively, and the inoculation volume was 0.1 mL. When tumors grew to an average volume of 100 mm^3, they were randomized according to tumor size and mouse body weight and dosed. The day of the first dose was Day 0. Two doses were administered on Day 0 and Day 4, with 50 μg of compound/mouse (i.e., 2.5 mg/kg) injected intratumorally right side, with the same volume of PBS (Hyclone, Cat #SH30258.01) as a control. The control mice were sacrificed 9 days, the ADU-S100 treated mice were sacrificed 14 days, and Example 10 treated mice were sacrificed 16 days, after dosing, respectively. During the experiment, tumor volumes and the body weights were measured 3 times per week, and the tumor volume was calculated as V=D×d×d/2 (Ibid).

SMILES | Growth inhibition rate, untreated left tumor (CT26 cells [1]) | Inhibition of tumor growth, treated right-side tumor (CT26 cells [1]) | EC50 [2] | Tumor growth inhibition rate in T cell immunodeficient nude mice (CT26 cells [3]) | Tumor growth inhibition in immuno-competent mice versus nude mice (in words) (CT26 cells [3]) | EC50 ([2]; Homo sapiens, THP-1, 24 h) | Activating effect on IFN-β secretion / STING agonist activity (in words) [2] | Highest concentration of IFN-β secreted by stimulated THP-1 cells [2]
Nc1ncnc2c1ncn2[C@@H]1O[C@@H]2COP(=O)([S-])O[C@@H]3[C@H](O)[C@@H](COP([O-])(=S)O[C@H]2[C@H]1O)O[C@H]3n1cnc2c(N)ncnc21.[Na+].[Na+] (stereo partly shown) [ADU-S100, reference compound] | 64.2% | 99.1% | 1 to 10 µM | 61.4% | better tumor growth inhibition in immuno-competent mice than in nude mice |  |  | 
Nc1nc2c(ncn2[C@@H]2O[C@@H]3CO[P@@](=O)(S)OC4C(F)[C@H](n5cnc6c(N)nc(Cl)nc65)O[C@@H]4CO[P@@](=O)(S)OC2C3O)c(=O)[nH]1 (stereo partly drawn) [Example 10, (2′,3′)-cyclo-(Rp,Rp)-[2′-O-phosphorothioate-diester-guanosine]-[3′-O-phosphorothioate-diester-2-chloro-2′-deoxy-2′-fluoro-beta-adenosine] diammonium salt] | 91.2% |  |  | 94.4% | better tumor growth inhibition in immuno-competent mice than in nude mice | 1 to 10 µM | significant STING agonist activity | higher than that of ADU-S100
Nc1nc2c(ncn2[C@@H]2O[C@@H]3CO[P@@](=O)(S)OC4C(F)[C@H](n5cnc6c(N)nc(Cl)nc65)O[C@@H]4CO[P@@](=O)(S)OC3C2O)c(=O)[nH]1 (stereo partly shown) [Example 17, diammonium salt] | 67.4% | 99.5% |  |  |  | 1 to 10 µM | significant STING agonist activity | higher than that of ADU-S100
